Measured values published in patent publication US20250249056A1, “CANCER THERAPIES COMPRISING A NUCLEAR EXPORT INHIBITOR AND AN ONCOLYTIC VIRUS” (priority 2022, published 2025).

Tested on: Colo205 cells
Type: cell-based, human

O=C(/C=C\n1cnc(-c2cc(C(F)(F)F)cc(C(F)(F)F)c2)n1)NNc1cnccn1 [selinexor]
Differential protein expression, SCAF1: 100 | Differential protein expression, A2ML1 (A8K2U0, selinexor-treated cytoplasm vs control cytoplasm): 3.444 | Differential protein expression, PHF20L1 (A8MW92, selinexor-treated cytoplasm vs control cytoplasm): 0.01 | Differential protein expression, KPNA7 (A9QM74, selinexor-treated cytoplasm vs control cytoplasm): 0.149 | Differential protein expression, accession B2CWB5 (B2CWB5 (gene symbol not given), selinexor-treated cytoplasm vs control cytoplasm): 0.01 | Differential protein expression, m033R (B2CWE0, selinexor-treated cytoplasm vs control cytoplasm): 0.01 | Differential protein expression, m047R (B2CWF4, selinexor-treated cytoplasm vs control cytoplasm): 0.01 | Differential protein expression, m060R (B2CWG7, selinexor-treated cytoplasm vs control cytoplasm): 0.01 | Differential protein expression, accession B2CWJ3 (B2CWJ3 (gene symbol not given), selinexor-treated cytoplasm vs control cytoplasm): 0.01 | Differential protein expression, accession B2CWL4 (B2CWL4 (gene symbol not given), selinexor-treated cytoplasm vs control cytoplasm): 100 | Differential protein expression, m149R (B2CWQ5, selinexor-treated cytoplasm vs control cytoplasm): 100 | Differential protein expression, HNRNPCL2 (B2RXH8, selinexor-treated cytoplasm vs control cytoplasm): 2.92 | Differential protein expression, HNRNPCL3 (B7ZW38, selinexor-treated cytoplasm vs control cytoplasm): 2.963 | Differential protein expression, m107L (E2CZJ6, selinexor-treated cytoplasm vs control cytoplasm): 100 | Differential protein expression, m126R (E2CZL5, selinexor-treated cytoplasm vs control cytoplasm): 0.193 | Differential protein expression, m001R (E2CZP2, selinexor-treated cytoplasm vs control cytoplasm): 3.839 | Differential protein expression, m009L (E2CZQ3, selinexor-treated cytoplasm vs control cytoplasm): 0.01 | Differential protein expression, m055R (E2CZV0, selinexor-treated cytoplasm vs control cytoplasm): 2.342 | Differential protein expression, m072L (E2CZW7, selinexor-treated cytoplasm vs control cytoplasm): 3.124 | Differential protein expression, m086L (E2CZY1, selinexor-treated cytoplasm vs control cytoplasm): 0.01 | Differential protein expression, AGRN (O00468, selinexor-treated cytoplasm vs control cytoplasm): 0.494 | Differential protein expression, SDCBP (O00560, selinexor-treated cytoplasm vs control cytoplasm): 2.743 | Differential protein expression, MPHOSPH10 (O00566, selinexor-treated cytoplasm vs control cytoplasm): 2.761 | Differential protein expression, UBE2C (O00762, selinexor-treated cytoplasm vs control cytoplasm): 0.459 | Differential protein expression, SCD (O00767, selinexor-treated cytoplasm vs control cytoplasm): 0.297 | Differential protein expression, M-T1 (O10625, selinexor-treated cytoplasm vs control cytoplasm): 3.839 | Differential protein expression, CLDN4 (O14493, selinexor-treated cytoplasm vs control cytoplasm): 10.645 | Differential protein expression, UTY (O14607, selinexor-treated cytoplasm vs control cytoplasm): 0.01 | Differential protein expression, MEIS2 (O14770, selinexor-treated cytoplasm vs control cytoplasm): 0.01 | Differential protein expression, BACH1 (O14867, selinexor-treated cytoplasm vs control cytoplasm): 100 | Differential protein expression, IRF6 (O14896, selinexor-treated cytoplasm vs control cytoplasm): 2.466 | Differential protein expression, MYL12B (O14950, selinexor-treated cytoplasm vs control cytoplasm): 2.249 | Differential protein expression, XPO1 (O14980, selinexor-treated cytoplasm vs control cytoplasm): 0.335 | Differential protein expression, MAPK13 (O15264, selinexor-treated cytoplasm vs control cytoplasm): 2.006 | Differential protein expression, DDX3Y (O15523, selinexor-treated cytoplasm vs control cytoplasm): 100 | Differential protein expression, MAFG (O15525, selinexor-treated cytoplasm vs control cytoplasm): 0.453 | Differential protein expression, CLDN3 (O15551, selinexor-treated cytoplasm vs control cytoplasm): 2.357 | Differential protein expression, SPINT1 (O43278, selinexor-treated cytoplasm vs control cytoplasm): 4.255 | Differential protein expression, KDELR3 (O43731, selinexor-treated cytoplasm vs control cytoplasm): 0.379 | Differential protein expression, ZBTB14 (O43829, selinexor-treated cytoplasm vs control cytoplasm): 0.01 | Differential protein expression, HNRNPCL1 (O60812, selinexor-treated cytoplasm vs control cytoplasm): 2.92 | Differential protein expression, NOS1AP (O75052, selinexor-treated cytoplasm vs control cytoplasm): 0.01 | Differential protein expression, SIN3B (O75182, selinexor-treated cytoplasm vs control cytoplasm): 0.01 | Differential protein expression, ZNF217 (O75362, selinexor-treated cytoplasm vs control cytoplasm): 2.042 | Differential protein expression, TAF5L (O75529, selinexor-treated cytoplasm vs control cytoplasm): 100 | Differential protein expression, BANF1 (O75531, selinexor-treated cytoplasm vs control cytoplasm): 2.438 | Differential protein expression, PIAS2 (O75928, selinexor-treated cytoplasm vs control cytoplasm): 100 | Differential protein expression, ZFAND5 (O76080, selinexor-treated cytoplasm vs control cytoplasm): 0.48 | Differential protein expression, SUPT7L (O94864, selinexor-treated cytoplasm vs control cytoplasm): 0.01 | Differential protein expression, HEXIM1 (O94992, selinexor-treated cytoplasm vs control cytoplasm): 3.29 | Differential protein expression, SVIL (O95425, selinexor-treated cytoplasm vs control cytoplasm): 0.01 | Differential protein expression, NUDT3 (O95989, selinexor-treated cytoplasm vs control cytoplasm): 3.124 | Differential protein expression, DHFR (P00374, selinexor-treated cytoplasm vs control cytoplasm): 0.419 | Differential protein expression, OAS1 (P00973, selinexor-treated cytoplasm vs control cytoplasm): 2.17 | Differential protein expression, TIMP1 (P01033, selinexor-treated cytoplasm vs control cytoplasm): 2.021 | Differential protein expression, CSTA (P01040, selinexor-treated cytoplasm vs control cytoplasm): 3.956 | Differential protein expression, FOS (P01100, selinexor-treated cytoplasm vs control cytoplasm): 0.01 | Differential protein expression, KRT14 (P02533, selinexor-treated cytoplasm vs control cytoplasm): 3.261 | Differential protein expression, KRT6A (P02538, selinexor-treated cytoplasm vs control cytoplasm): 3.082 | Differential protein expression, APOD (P05090, selinexor-treated cytoplasm vs control cytoplasm): 7.079 | Differential protein expression, S100A8 (P05109, selinexor-treated cytoplasm vs control cytoplasm): 3.524 | Differential protein expression, CENPB (P07199, selinexor-treated cytoplasm vs control cytoplasm): 0.01 | Differential protein expression, PRSS2 (P07478, selinexor-treated cytoplasm vs control cytoplasm): 0.479 | Differential protein expression, HNRNPC (P07910, selinexor-treated cytoplasm vs control cytoplasm): 2.948 | Differential protein expression, ASNS (P08243, selinexor-treated cytoplasm vs control cytoplasm): 0.353 | Differential protein expression, NFIC (P08651, selinexor-treated cytoplasm vs control cytoplasm): 0.01 | Differential protein expression, KRT16 (P08779, selinexor-treated cytoplasm vs control cytoplasm): 4.248 | Differential protein expression, TOP2A (P11388, selinexor-treated cytoplasm vs control cytoplasm): 0.458 | Differential protein expression, CDK4 (P11802, selinexor-treated cytoplasm vs control cytoplasm): 0.445 | Differential protein expression, NEFH (P12036, selinexor-treated cytoplasm vs control cytoplasm): 2.248 | Differential protein expression, CDH1 (P12830, selinexor-treated cytoplasm vs control cytoplasm): 4.064 | Differential protein expression, KRT10 (P13645, selinexor-treated cytoplasm vs control cytoplasm): 2.123 | Differential protein expression, KRT5 (P13647, selinexor-treated cytoplasm vs control cytoplasm): 2.042 | Differential protein expression, CD59 (P13987, selinexor-treated cytoplasm vs control cytoplasm): 2.269 | Differential protein expression, PLA2G2A (P14555, selinexor-treated cytoplasm vs control cytoplasm): 2.128 | Differential protein expression, CCNB1 (P14635, selinexor-treated cytoplasm vs control cytoplasm): 0.377 | Differential protein expression, MYL6B (P14649, selinexor-treated cytoplasm vs control cytoplasm): 2.392 | Differential protein expression, HNRNPL (P14866, selinexor-treated cytoplasm vs control cytoplasm): 2.044 | Differential protein expression, GLUL (P15104, selinexor-treated cytoplasm vs control cytoplasm): 2.48 | Differential protein expression, ATF2 (P15336, selinexor-treated cytoplasm vs control cytoplasm): 0.01 | Differential protein expression, FOSL2 (P15408, selinexor-treated cytoplasm vs control cytoplasm): 100 | Differential protein expression, H1-3 (P16402, selinexor-treated cytoplasm vs control cytoplasm): 14.354 | Differential protein expression, ZKSCAN1 (P17029, selinexor-treated cytoplasm vs control cytoplasm): 100 | Differential protein expression, SDC1 (P18827, selinexor-treated cytoplasm vs control cytoplasm): 2.678 | Differential protein expression, ATF1 (P18846, selinexor-treated cytoplasm vs control cytoplasm): 100 | Differential protein expression, MYL12A (P19105, selinexor-treated cytoplasm vs control cytoplasm): 2.269 | Differential protein expression, IMPDH1 (P20839, selinexor-treated cytoplasm vs control cytoplasm): 0.485 | Differential protein expression, TGM1 (P22735, selinexor-treated cytoplasm vs control cytoplasm): 2.137 | Differential protein expression, MYL9 (P24844, selinexor-treated cytoplasm vs control cytoplasm): 2.253 | Differential protein expression, DNMT1 (P26358, selinexor-treated cytoplasm vs control cytoplasm): 0.424 | Differential protein expression, RBL1 (P28749, selinexor-treated cytoplasm vs control cytoplasm): 0.395 | Differential protein expression, GRN (P28799, selinexor-treated cytoplasm vs control cytoplasm): 2.493 | Differential protein expression, KDM5A (P29375, selinexor-treated cytoplasm vs control cytoplasm): 0.01 | Differential protein expression, SERPINB3 (P29508, selinexor-treated cytoplasm vs control cytoplasm): 34.048 | Differential protein expression, SLC7A1 (P30825, selinexor-treated cytoplasm vs control cytoplasm): 0.272 | Differential protein expression, S100A7 (P31151, selinexor-treated cytoplasm vs control cytoplasm): 2.547 | Differential protein expression, RRM2 (P31350, selinexor-treated cytoplasm vs control cytoplasm): 0.284 | Differential protein expression, CASP14 (P31944, selinexor-treated cytoplasm vs control cytoplasm): 2.655 | Differential protein expression, CDA (P32320, selinexor-treated cytoplasm vs control cytoplasm): 2.571 | Differential protein expression, GBP1 (P32455, selinexor-treated cytoplasm vs control cytoplasm): 0.01 | Differential protein expression, KRT9 (P35527, selinexor-treated cytoplasm vs control cytoplasm): 0.486 | Differential protein expression, MYH9 (P35579, selinexor-treated cytoplasm vs control cytoplasm): 2.051 | Differential protein expression, MYH10 (P35580, selinexor-treated cytoplasm vs control cytoplasm): 2.213 | Differential protein expression, HSD17B2 (P37059, selinexor-treated cytoplasm vs control cytoplasm): 2.045 | Differential protein expression, FDFT1 (P37268, selinexor-treated cytoplasm vs control cytoplasm): 0.453 | Differential protein expression, PBX3 (P40426, selinexor-treated cytoplasm vs control cytoplasm): 0.01 | Differential protein expression, SLC1A4 (P43007, selinexor-treated cytoplasm vs control cytoplasm): 0.439 | Differential protein expression, MATR3 (P43243, selinexor-treated cytoplasm vs control cytoplasm): 5.731 | Differential protein expression, RFX3 (P48380, selinexor-treated cytoplasm vs control cytoplasm): 0.152 | Differential protein expression, SERPINB4 (P48594, selinexor-treated cytoplasm vs control cytoplasm): 5.894 | Differential protein expression, HNRNPA3 (P51991, selinexor-treated cytoplasm vs control cytoplasm): 2.069 | Differential protein expression, ZNF131 (P52739, selinexor-treated cytoplasm vs control cytoplasm): 0.01 | Differential protein expression, RBM5 (P52756, selinexor-treated cytoplasm vs control cytoplasm): 0.01 | Differential protein expression, PLK1 (P53350, selinexor-treated cytoplasm vs control cytoplasm): 0.01 | Differential protein expression, CEBPG (P53567, selinexor-treated cytoplasm vs control cytoplasm): 0.01 | Differential protein expression, MAPK12 (P53778, selinexor-treated cytoplasm vs control cytoplasm): 2.006 | Differential protein expression, POLG (P54098, selinexor-treated cytoplasm vs control cytoplasm): 0.27 | Differential protein expression, EPHB3 (P54753, selinexor-treated cytoplasm vs control cytoplasm): 0.496 | Differential protein expression, PKNOX1 (P55347, selinexor-treated cytoplasm vs control cytoplasm): 0.01 | Differential protein expression, MAZ (P56270, selinexor-treated cytoplasm vs control cytoplasm): 0.01 | Differential protein expression, HDAC4 (P56524, selinexor-treated cytoplasm vs control cytoplasm): 0.458 | Differential protein expression, PCBP3 (P57721, selinexor-treated cytoplasm vs control cytoplasm): 2.306 | Differential protein expression, CKS1B (P61024, selinexor-treated cytoplasm vs control cytoplasm): 0.422 | Differential protein expression, POLR2F (P61218, selinexor-treated cytoplasm vs control cytoplasm): 2.135 | Differential protein expression, SNRPE (P62304, selinexor-treated cytoplasm vs control cytoplasm): 2.173 | Differential protein expression, SNRPF (P62306, selinexor-treated cytoplasm vs control cytoplasm): 2.172 | Differential protein expression, SNRPD1 (P62314, selinexor-treated cytoplasm vs control cytoplasm): 2.056 | Differential protein expression, SNRPD2 (P62316, selinexor-treated cytoplasm vs control cytoplasm): 2.406 | Differential protein expression, RHOB (P62745, selinexor-treated cytoplasm vs control cytoplasm): 0.01 | Differential protein expression, ARF1 (P84077, selinexor-treated cytoplasm vs control cytoplasm): 2.133 | Differential protein expression, H3-3A; H3-3B (P84243, selinexor-treated cytoplasm vs control cytoplasm): 3.295 | Differential protein expression, HSPG2 (P98160, selinexor-treated cytoplasm vs control cytoplasm): 0.441 | Differential protein expression, KRT24 (Q2M2I5, selinexor-treated cytoplasm vs control cytoplasm): 2.716 | Differential protein expression, SMU1 (Q2TAY7, selinexor-treated cytoplasm vs control cytoplasm): 2.21 | Differential protein expression, KRT71 (Q3SY84, selinexor-treated cytoplasm vs control cytoplasm): 4.935 | Differential protein expression, COA6 (Q5JTJ3, selinexor-treated cytoplasm vs control cytoplasm): 2.872
